Experimental data as given in patent US4350685A, “Antiallergic imidodisulfamides” (SmithKline Corporation, priority 1981, dated 1982).

Tested on: SRS-A induced contraction of guinea pig ileum
Assay: inhibition of SRS-A induced contraction of guinea pig ileum (SRS-A antagonist activity)
Format: cell-based
Settings: Cavia porcellus, 0.25 h, partially purified SRS-A from guinea pig lung, 40 μg/ml, 15 minutes incubation, read-out: percent antagonism of SRS-A; for inhibition at 5 µM: 5×10^-6 M
Method: The SRS-A antagonist activity of the compounds of this invention is measured by the ability of the active medicament to inhibit SRS-A induced contraction of guinea pig ileum. In this test system, sections of ileum are resected from guinea pigs and placed in 5 ml. tissue baths containing a modified Tyrode's solution. One end of the tissue is fixed to a glass tissue holder, the other is connected to a force-displacement transducer and the tissue is placed under a tension of 500 mg. Isometric tissue contractions are recorded on a six channel polygraph. Baths are constantly aerated with 95% O2 -5% CO2. After a 20 minute stabilization period a concentration of the appropriate agonist which provides a contraction height of 60-80% of the maximum obtainable to that agonist (as determined from full sequential concentration-response curves in separate experiments) is added to the tissue bath and the response recorded. The procedure is repeated until reproducible responses are obtained. For most agonists, two applications in rapid succession, followed 15 minutes later by a third, is sufficient to establish reproducibility. Experimental tissues are incubated with the selected concentration of the test compounds for 15 minutes. Experimental and control tissues are subjected to 5 bath changes during the incubation interval. Changes in bath fluid during the incubation period are helpful in insuring the reproducibility of tissue responses to the agonist. The same concentration of the agonist is reapplied in the presence of the test compound and the response registered and compared with controls. Percent inhibition produced by the test compound is calculated by substracting the mean percentage change in control tissue from the mean percentage change in tissues exposed to the test compound. Additional compounds are then evaluated as long as the tissue remains reproducibly responsive to the agonist. Six tissues obtained from 6 animals are used simultaneously--3 controls and 3 experimental. […]

Row | SMILES | inhibition at 5 µM [%] | inhibition at 50 µM (5×10^-5 M) [%]
1 | O=S(=O)(N[C@@H]1C[C@H]1c1ccc(Cl)c(Cl)c1)NS(=O)(=O)N[C@@H]1C[C@H]1c1ccc(Cl)c(Cl)c1 (relative stereo) [Compound 2, 1,5-di[trans-2-(3,4-dichlorophenyl)cyclopropyl]imidodisulfamide] | 60 | –
2 | O=S(=O)(N[C@@H]1CCCC[C@@H]1c1ccccc1)NS(=O)(=O)N[C@@H]1CCCC[C@@H]1c1ccccc1 (relative stereo) [Compound 3, 1,5-di[cis-2-phenylcyclohexyl]imidodisulfamide] | – | 86
3 | O=S(=O)(N[C@@H]1C[C@H]1c1ccccc1)NS(=O)(=O)N[C@@H]1C[C@H]1c1ccccc1 (relative stereo) [Compound 1, 1,5-Di[TRANS-2-PHENYLCYCLOPROPYL]IMIDODISULFAMIDE] | 17 | –
